This assay concerns the target T1, rat NaP2b (SLC34A2) (Rattus norvegicus, UniProt Q9JJ09).
T1 construct: host or cells: HEK293
T1 sequence (Q9JJ09 1-695): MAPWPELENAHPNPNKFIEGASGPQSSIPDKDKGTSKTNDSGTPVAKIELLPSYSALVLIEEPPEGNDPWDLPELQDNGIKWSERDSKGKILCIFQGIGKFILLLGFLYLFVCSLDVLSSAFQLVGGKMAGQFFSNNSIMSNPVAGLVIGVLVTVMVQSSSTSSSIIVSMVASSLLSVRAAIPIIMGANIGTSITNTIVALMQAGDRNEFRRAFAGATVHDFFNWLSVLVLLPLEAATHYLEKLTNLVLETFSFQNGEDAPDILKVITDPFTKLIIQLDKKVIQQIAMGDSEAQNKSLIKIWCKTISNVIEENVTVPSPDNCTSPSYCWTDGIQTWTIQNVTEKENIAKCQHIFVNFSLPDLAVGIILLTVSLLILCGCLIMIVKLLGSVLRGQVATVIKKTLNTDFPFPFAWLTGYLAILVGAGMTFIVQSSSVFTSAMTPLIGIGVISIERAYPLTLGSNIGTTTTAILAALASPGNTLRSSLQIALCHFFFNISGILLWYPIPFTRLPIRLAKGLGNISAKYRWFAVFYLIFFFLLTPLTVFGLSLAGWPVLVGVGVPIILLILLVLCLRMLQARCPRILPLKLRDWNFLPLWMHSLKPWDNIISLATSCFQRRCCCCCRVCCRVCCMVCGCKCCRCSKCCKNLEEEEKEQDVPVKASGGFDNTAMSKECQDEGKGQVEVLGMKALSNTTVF
The experiment in a line: Inhibition of NaP2b-mediated Pi (33P) uptake in transfected HEK293 cells, rat NaP2b. Type of assay: cell-based. The note with it: 33P Pi uptake, 0.1 mM phosphate, value given as pIC50 range. Here is the method:
HEK293 cells were obtained from the American Type Culture collection and propagated per their instructions. […] The sequence of the human protein was mutated to insert a threonine after residue 37, and to introduce a N39D mutation.
Cells were seeded into 96-well plates at 25,000 cells/well and cultured overnight. Lipofectamine 2000 (Invitrogen) was used to introduce the NaP2b cDNA, and the cells were allowed to approach confluence during a second overnight incubation. […] Each compound was tested at twelve concentrations ranging from 0.1 nM to 30 uM. Assays were run in duplicate.
Cells were lysed by addition of 20 μL 0.1% Tween 80 followed by 100 μL scintillation fluid, and counted using a TopCount (Perkin Elmer).
pIC50 (the negative log of the IC50) values of the test compounds were calculated using GraphPad Prism.

Usually IC50 stands for the concentration at which inhibition is half-maximal.

Compound `CC(=O)N1CCCN(C(=O)c2cccc(C(=O)Nc3ccc(N4CCCCC4)cc3-c3cc(C(=O)NCc4cccc(C(F)(F)F)c4)ccn3)c2)CC1` [Example 4.13, 2-(2-(3-(4-Acetyl-1,4-diazepane-1-carbonyl)benzamido)-5-(piperidin-1-yl)phenyl)-N-(3-(trifluoromethyl)benzyl)isonicotinamide] gave a half-inhibitory concentration (IC50) of 1 to 7.94 µM. For `COCCNC(=O)[C@H]1CCCN(C(=O)c2cccc(C(=O)Nc3ccc(N4CCCCC4)cc3-c3cc(C(=O)NCc4cccc(C(F)(F)F)c4)ccn3)c2)C1` [Example 4.14, (S)-2-(2-(3-(3-((2-Methoxyethyl)carbamoyl)piperidine-1-carbonyl)benzamido)-5-(piperidin-1-yl)phenyl)-N-(3-(trifluoromethyl)benzyl)isonicotinamide], the IC50 was 1 to 7.94 µM. For `COCCNC(=O)[C@@H]1CCCN(C(=O)c2cccc(C(=O)Nc3ccc(N4CCCCC4)cc3-c3cc(C(=O)NCc4cccc(C(F)(F)F)c4)ccn3)c2)C1` [Example 4.15, (R)-2-(2-(3-(3-((2-Methoxyethyl)carbamoyl)piperidine-1-carbonyl)benzamido)-5-(piperidin-1-yl)phenyl)-N-(3-(trifluoromethyl)benzyl)isonicotinamide] the value was 1 to 7.94 µM; for `O=C(CCSCc1cccc(C(=O)Nc2ccc(N3CCCCC3)cc2-c2cc(C(=O)NCc3cccc(C(F)(F)F)c3)ccn2)c1)NCCN1CCOCC1` [Example 4.16, 2-(2-(3-(((3-((2-Morpholinoethyl)amino)-3-oxopropyl)thio)methyl)benzamido)-5-(piperidin-1-yl)phenyl)-N-(3-(trifluoromethyl)benzyl)isonicotinamide], 10 to 31.6 µM. As for `COCCNC(=O)CCSCc1cccc(C(=O)Nc2ccc(N3CCCCC3)cc2-c2cc(C(=O)NCc3cccc(C(F)(F)F)c3)ccn2)c1` [Example 4.17, 2-(2-(3-(((3-((2-Methoxyethyl)amino)-3-oxopropyl)thio)methyl)benzamido)-5-(piperidin-1-yl)phenyl)-N-(3-(trifluoromethyl)benzyl)isonicotinamide], the IC50 was 10 to 31.6 µM. For `O=C(O)CNC(=O)CCSCc1cccc(C(=O)Nc2ccc(N3CCCCC3)cc2-c2cc(C(=O)NCc3cccc(C(F)(F)F)c3)ccn2)c1` [Example 4.18, 2-(3-((3-((4-(Piperidin-1-yl)-2-(4-((3-(trifluoromethyl)benzyl)carbamoyl)pyridin-2-yl)phenyl)carbamoyl)benzyl)thio)propanamido)acetic acid], the IC50 was 10 to 31.6 µM. Regarding `COCCN(C)CCN(C)C(=O)c1cccc(C(=O)Nc2ccc(N3CCCCC3)cc2-c2cc(C(=O)NCc3cccc(C(F)(F)F)c3)ccn2)c1` [Example 4.20.2, N1-(2-((2-Methoxyethyl)(methyl)amino)ethyl)-N1-methyl-N3-(4-(piperidin-1-yl)-2-(4-((3-(trifluoromethyl)benzyl)carbamoyl)pyridin-2-yl)phenyl)isophthalamide], the IC50 is 1 to 7.94 µM. For `CN(CCO)CCN(C)C(=O)c1cccc(C(=O)Nc2ccc(N3CCCCC3)cc2-c2cc(C(=O)NCc3cccc(C(F)(F)F)c3)ccn2)c1` [Example 4.21, N1-(2-((2-Hydroxyethyl)(methyl)amino)ethyl)-N1-methyl-N3-(4-(piperidin-1-yl)-2-(4-((3-(trifluoromethyl)benzyl)carbamoyl)pyridin-2-yl)phenyl)isophthalamide] the value was 1 to 7.94 µM.

For the compound `CN(CCNC(=O)OC(C)(C)C)C(=O)c1cccc(C(=O)Nc2ccc(N3CCCCC3)cc2-c2cc(C(=O)NCc3cccc(C(F)(F)F)c3)ccn2)c1` [Example 4.22], the half-inhibitory concentration (IC50) was 10 to 31.6 µM. In turn, `O=C(NCc1cccc(C(F)(F)F)c1)c1ccnc(-c2cc(N3CCCCC3)ccc2NC(=O)c2cccc(C(=O)N3CCC(N4CCOCC4)CC3)c2)c1` [Example 4.23] showed an IC50 of 10 to 31.6 µM. For `CN(Cc1ncc[nH]1)C(=O)c1cccc(C(=O)Nc2ccc(N3CCCCC3)cc2-c2cc(C(=O)NCc3cccc(C(F)(F)F)c3)ccn2)c1` [Example 4.24] the value was 1 to 7.94 µM; for `CN(Cc1nccn1C)C(=O)c1cccc(C(=O)Nc2ccc(N3CCCCC3)cc2-c2cc(C(=O)NCc3cccc(C(F)(F)F)c3)ccn2)c1` [Example 4.25], 1 to 7.94 µM; for `CN(Cc1cccnc1)C(=O)c1cccc(C(=O)Nc2ccc(N3CCCCC3)cc2-c2cc(C(=O)NCc3cccc(C(F)(F)F)c3)ccn2)c1` [Example 4.27], 1 to 7.94 µM.

Compound `CN(CCn1ccnc1)C(=O)c1cccc(C(=O)Nc2ccc(N3CCCCC3)cc2-c2cc(C(=O)NCc3cccc(C(F)(F)F)c3)ccn2)c1` [Example 4.28] showed an IC50 of 1 to 7.94 µM.

For the compound `O=C(NCc1cccc(C(F)(F)F)c1)c1ccnc(-c2cc(N3CCCCC3)ccc2NC(=O)c2cccc(C(=O)N3CCC(CCO)CC3)c2)c1` [Example 4.29], the IC50 was 1 to 7.94 µM. Regarding `O=C(NCc1cccc(C(F)(F)F)c1)c1ccnc(-c2cc(N3CCCCC3)ccc2NC(=O)c2cccc(C(=O)N3CCC(CO)CC3)c2)c1` [Example 4.30], the half-inhibitory concentration (IC50) was 1 to 7.94 µM. As for `O=C(O)CC1CCN(C(=O)c2cccc(C(=O)Nc3ccc(N4CCCCC4)cc3-c3cc(C(=O)NCc4cccc(C(F)(F)F)c4)ccn3)c2)CC1` [Example 4.31, 2-(1-(3-(4-(Piperidin-1-yl)-2-(4-(3-(trifluoromethyl)benzylcarbamoyl)pyridin-2-yl)phenylcarbamoyl)benzoyl)piperidin-4-yl)acetic acid], the IC50 is 10 to 31.6 µM. For `CN(Cc1cccc(C(=O)O)c1)C(=O)c1cccc(C(=O)Nc2ccc(N3CCCCC3)cc2-c2cc(C(=O)NCc3cccc(C(F)(F)F)c3)ccn2)c1` [Example 4.32, 3-((N-Methyl-3-(4-(piperidin-1-yl)-2-(4-(3-(trifluoromethyl)benzylcarbamoyl)pyridin-2-yl)phenylcarbamoyl)benzamido)methyl)benzoic acid] the value was 1 to 7.94 µM; for `O=C(O)CCSCc1cccc(C(=O)Nc2ccc(N3CCCCC3)cc2-c2cc(C(=O)CCc3ccccc3)ccn2)c1` [Example 5.1, 3-((3-((2-(4-(3-Phenylpropanoyl)pyridin-2-yl)-4-(piperidin-1-yl)phenyl)carbamoyl)benzyl)thio)propanoic acid], 1 to 7.94 µM; for `O=C(O)CCSCc1cccc(C(=O)Nc2ccc(N3CCCCC3)cc2-c2cc(C(=O)c3cccc(C(F)(F)F)c3)ccn2)c1` [Example 5.2, 3-((3-((4-(piperidin-1-yl)-2-(4-(3-(trifluoromethyl)benzoyl)pyridin-2-yl)phenyl)carbamoyl)benzyl)thio)propanoic acid], 10 to 31.6 µM. As for `O=C(O)CCSCc1cccc(C(=O)Nc2ccc(N3CCCCC3)cc2-c2cc(C(O)c3cccc(C(F)(F)F)c3)ccn2)c1` (stereo not shown) [Example 6.2, 3-((3-((2-(4-(Hydroxy(3-(trifluoromethyl)phenyl)methyl)pyridin-2-yl)-4-(piperidin-1-yl)phenyl)carbamoyl)benzyl)thio)propanoic acid], the figure is 10 to 31.6 µM; as for `O=C(O)CCSCc1cccc(C(=O)Nc2ccc(N3CCCCC3)cc2-c2cc(CNCc3cccc(C(F)(F)F)c3)ccn2)c1` [Example 7], 10 to 31.6 µM; as for `O=C(NCc1cccc(C(F)(F)F)c1)c1ccnc(-c2cc(N3CCCCC3)ccc2NC(=O)c2cccc(CSCCO)c2)c1` [Example 8.2], 1 to 7.94 µM.

The compound `O=C(NCc1cccc(C(F)(F)F)c1)c1ccnc(-c2cc(N3CCCCC3)ccc2NC(=O)c2cccc(CSCCCCO)c2)c1` [Example 8.4] showed an IC50 of 1 to 7.94 µM. As for `O=C(O)CCCSCc1cccc(C(=O)Nc2ccc(N3CCCCC3)cc2-c2cc(C(=O)NCc3cccc(C(F)(F)F)c3)ccn2)c1` [Example 8.5], the figure is 1 to 7.94 µM.

`O=C(O)CCOCCOCCOCCOCCSCc1cccc(C(=O)Nc2ccc(N3CCCCC3)cc2-c2cc(C(=O)NCc3cccc(C(F)(F)F)c3)ccn2)c1` [Example 8.7]: the half-maximal inhibitory concentration (IC50) was 1 to 7.94 µM. `O=C(O)CCc1ccc(SCc2cccc(C(=O)Nc3ccc(N4CCCCC4)cc3-c3cc(C(=O)NCc4cccc(C(F)(F)F)c4)ccn3)c2)cc1` [Example 8.8]: the half-maximal inhibitory concentration (IC50) was less than 1 µM. As for `O=C(O)CCCc1ccc(SCc2cccc(C(=O)Nc3ccc(N4CCCCC4)cc3-c3cc(C(=O)NCc4cccc(C(F)(F)F)c4)ccn3)c2)cc1` [Example 8.9], the figure is 1 to 7.94 µM; as for `CC(C)(C)OC(=O)NC(CSCc1cccc(C(=O)Nc2ccc(N3CCCCC3)cc2-c2cc(C(=O)NCc3cccc(C(F)(F)F)c3)ccn2)c1)C(=O)O` (stereo not shown) [Example 8.10], 10 to 31.6 µM; as for `CC(=O)NC(C(=O)O)C(C)(C)SCc1cccc(C(=O)Nc2ccc(N3CCCCC3)cc2-c2cc(C(=O)NCc3cccc(C(F)(F)F)c3)ccn2)c1` (stereo not shown) [Example 8.11], 10 to 31.6 µM. For `CC(C)C(=O)NC(CSCc1cccc(C(=O)Nc2ccc(N3CCCCC3)cc2-c2cc(C(=O)NCc3cccc(C(F)(F)F)c3)ccn2)c1)C(=O)O` (stereo not shown) [Example 8.12] the value was 10 to 31.6 µM.

The values above are taken from patent US20140023611A1 (priority 2010, published 2014).
